The text below walks through data of patent US6906093B2, “Indolinone combinatorial libraries and related products and methods for the treatment of disease” (Sugen, Inc., priority 1995, dated 2005).

T2 sequence (P35918 20-1345): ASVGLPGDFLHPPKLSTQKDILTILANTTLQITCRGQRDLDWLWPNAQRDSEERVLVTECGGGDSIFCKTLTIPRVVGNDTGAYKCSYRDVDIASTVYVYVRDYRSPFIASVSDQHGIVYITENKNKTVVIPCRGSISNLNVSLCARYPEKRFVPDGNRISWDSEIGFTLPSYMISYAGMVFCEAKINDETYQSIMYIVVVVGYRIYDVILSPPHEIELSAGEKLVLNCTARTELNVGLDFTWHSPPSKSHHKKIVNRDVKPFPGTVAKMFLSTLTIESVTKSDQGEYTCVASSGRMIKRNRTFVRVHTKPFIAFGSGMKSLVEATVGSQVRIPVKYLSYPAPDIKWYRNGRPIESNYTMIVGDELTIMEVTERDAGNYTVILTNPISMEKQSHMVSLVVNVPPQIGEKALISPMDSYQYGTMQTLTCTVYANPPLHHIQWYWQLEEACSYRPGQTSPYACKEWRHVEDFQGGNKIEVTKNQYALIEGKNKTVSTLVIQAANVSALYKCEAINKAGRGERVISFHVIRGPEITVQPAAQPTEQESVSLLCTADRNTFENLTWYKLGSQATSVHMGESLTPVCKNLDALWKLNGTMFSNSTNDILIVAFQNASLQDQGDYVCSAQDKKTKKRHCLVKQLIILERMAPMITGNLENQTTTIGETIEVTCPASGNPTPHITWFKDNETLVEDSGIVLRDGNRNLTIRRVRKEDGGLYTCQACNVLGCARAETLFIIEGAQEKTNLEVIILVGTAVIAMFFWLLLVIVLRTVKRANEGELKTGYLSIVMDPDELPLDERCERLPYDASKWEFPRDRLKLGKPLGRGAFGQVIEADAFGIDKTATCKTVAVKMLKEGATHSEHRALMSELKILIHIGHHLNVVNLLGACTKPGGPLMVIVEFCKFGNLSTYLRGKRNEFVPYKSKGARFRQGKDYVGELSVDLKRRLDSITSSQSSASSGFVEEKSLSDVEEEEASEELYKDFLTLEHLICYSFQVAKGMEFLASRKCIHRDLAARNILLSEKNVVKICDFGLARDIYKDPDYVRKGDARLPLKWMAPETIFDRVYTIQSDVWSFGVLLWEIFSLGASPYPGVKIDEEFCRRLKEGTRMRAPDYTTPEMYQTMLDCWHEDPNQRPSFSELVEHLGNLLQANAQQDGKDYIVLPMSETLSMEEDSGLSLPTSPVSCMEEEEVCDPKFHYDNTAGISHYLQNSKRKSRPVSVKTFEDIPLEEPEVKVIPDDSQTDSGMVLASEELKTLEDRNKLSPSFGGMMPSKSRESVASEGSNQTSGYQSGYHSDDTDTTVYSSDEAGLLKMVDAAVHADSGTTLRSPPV
T1 sequence (P00533 25-1210): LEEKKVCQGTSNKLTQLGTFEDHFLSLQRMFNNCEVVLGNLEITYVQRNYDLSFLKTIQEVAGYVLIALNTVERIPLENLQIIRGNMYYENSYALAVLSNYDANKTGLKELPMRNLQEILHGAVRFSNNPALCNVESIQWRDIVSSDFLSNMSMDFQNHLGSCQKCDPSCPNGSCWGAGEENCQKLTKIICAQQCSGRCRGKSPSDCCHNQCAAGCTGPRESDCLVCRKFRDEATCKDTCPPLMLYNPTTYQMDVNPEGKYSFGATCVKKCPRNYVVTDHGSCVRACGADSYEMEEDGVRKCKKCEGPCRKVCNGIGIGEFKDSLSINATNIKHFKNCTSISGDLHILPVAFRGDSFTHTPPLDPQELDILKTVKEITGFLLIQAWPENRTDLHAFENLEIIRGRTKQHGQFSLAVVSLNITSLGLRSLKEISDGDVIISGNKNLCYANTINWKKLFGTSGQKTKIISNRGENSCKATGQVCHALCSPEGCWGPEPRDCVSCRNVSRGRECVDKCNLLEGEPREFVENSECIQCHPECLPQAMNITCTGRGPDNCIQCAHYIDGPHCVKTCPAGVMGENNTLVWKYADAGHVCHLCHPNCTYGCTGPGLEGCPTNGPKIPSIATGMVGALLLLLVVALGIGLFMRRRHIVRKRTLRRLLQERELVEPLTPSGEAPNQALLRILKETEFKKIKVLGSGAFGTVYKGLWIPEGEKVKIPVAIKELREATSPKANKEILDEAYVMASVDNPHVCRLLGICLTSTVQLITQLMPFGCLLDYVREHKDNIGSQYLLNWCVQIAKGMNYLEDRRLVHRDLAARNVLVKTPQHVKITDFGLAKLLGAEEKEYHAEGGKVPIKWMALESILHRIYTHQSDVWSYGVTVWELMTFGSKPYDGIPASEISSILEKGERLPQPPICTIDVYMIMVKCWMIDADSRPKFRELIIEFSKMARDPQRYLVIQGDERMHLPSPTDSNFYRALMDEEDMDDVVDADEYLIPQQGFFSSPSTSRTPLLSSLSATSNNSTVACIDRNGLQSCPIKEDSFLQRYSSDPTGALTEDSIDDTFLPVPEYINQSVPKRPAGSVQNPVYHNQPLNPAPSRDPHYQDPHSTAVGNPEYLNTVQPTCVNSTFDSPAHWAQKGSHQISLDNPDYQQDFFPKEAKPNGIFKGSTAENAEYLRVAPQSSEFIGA

In one test the test system is HUV-EC-C cells. Kind of test: HUV-EC-C assay, a-FGF (ECGF)-induced [3H]thymidine incorporation. The test is classed as cell-based, human. Conditions: a-FGF-stimulated HUV-EC cells; read-out: Mitogenesis in Endothelial Cells, [3H] Thymidine Incorporation, HUV-EC Assay, a-FGF.
Experimental: Repeat the wash two more times with D-PBS, resuspend the cells in about 1 ml assay medium/15 cm^2 of tissue culture flask.
Add cells to 96-well flat-bottom plates at 100 μl/well or 0.8-1.0×10^4 cells/well; incubate ˜24 h at 37° C., 5% CO2.
Use the same assay medium as mentioned in day 0, step 2 above. Titrations are made by adding 90 μl/well of drug at 200 μM (4× the final well concentration) to the top well of a particular plate column. Since the stock drug concentration-is usually 20 mM in DMSO, the 200 μM drug concentration contains 2% DMSO.
Therefore, diluent made up to 2% DMSO in assay medium (F12K+0.5% fetal bovine serum) is used as diluent for the drug titrations in order to dilute the drug but keep the DMSO concentration constant. Add this diluent to the remaining wells in the column at 60 μl/well. Take 60 μl from the 120 μl of 200 μM drug dilution in the top well of the column and mix with the 60 μl in the second well of the column. Take 60 μl from this well and mix with the 60 μl in the third well of the column, and so on until two-fold titrations-are completed. When the next-to-the-last well is mixed, take 60 μl of the 120 μl in this well and discard it. Leave the last well with 60 μl of DMSO/media diluent as a non-drug-containing control. […] 9 columns of titrated drug, enough for triplicate wells each for 1) VEGF (obtained from Pepro Tech Inc., catalogue no. 100-200, 2) endothelial cell growth factor (ECGF) (also known as acidic fibroblast growth factor, or aFGF) (obtained from Boehringer Mannheim Biochemica, catalogue no. […] ECGF comes as a preparation with sodium heparin.
Transfer 50 μl/well of the drug dilutions to the 96-well assay plates containing the 0.8-1.0×10^4 cells/100 μl/well of the HUV-EC-C cells from day 0 and incubate ˜2 h at 37° C., 5% CO2.
In triplicate, add 50 μl/well of 80 μg/ml VEGF, 20 ng/ml ECGF, or media control to each drug condition. As with the drugs, the growth factor concentrations are 4× the desired final concentration. Use the assay media from day 0 step 2 to make the concentrations of growth factors.
Freeze plates overnight at −20° C.
As for `O=C1Nc2ccc(Cl)cc2C1=Cc1ccc(Br)cc1` [SU4972, 3-(4-Bromobenzylidenyl)-5-chloro-2-indolinone], the IC50 is 1.4 µM.

Another test has as its target T1, EGFR (Homo sapiens, UniProt P00533).
T1 construct: expressed in transfected cells; host or cells: NIH 3T3/C7 (3T3/EGFRc7)
Kind of test: EGF-Induced BrdU Incorporation Assay in 3T3/EGFR cells. To be noted: EGF ligand; read-out: Mitogenesis in 3T3/EGFR Cells, BrdU Incorporation, EGFR EGF Ligand IC50. The format is cell-based.
Experimental: Assay 2: EGF-Induced BrdU Incorporation Assay
Protocol • (1) 3T3 engineered cell line: 3T3/EGFRc7 • (2) Cells are seeded at 8000 cells/well in 10% CS, 2 mM Gln in DMEM, in a 96 well plate. […] The negative control wells receive serum free DMEM with 0.1% BSA only; the positive control cells receive the ligand (EGF) but no test compound. […] FixDenat solution is added (50 μl/well) and the plates are incubated at room temperature for 45 minutes on a plate shaker. • (7) The FixDenat solution is thoroughly removed by decanting and tapping the inverted plate on a paper towel. Milk is added (5% dehydrated milk in PBS, 200 μl/well) as a blocking solution and the plate is incubated for 30 minutes at room temperature on a plate shaker. • (8) The blocking solution is removed by decanting and the wells are washed once with PBS. Anti-BrdU-POD solution (1:100 dilution in PBS, 1% BSA) is added (100 μl/well) and the plate is incubated for 90 minutes at room temperature on a plate shaker. • (9) The antibody conjugate is thoroughly removed by decanting and rinsing the wells 5 times with PBS, and the plate is dried by inverting and tapping on a paper towel. • (10) TMB substrate solution is added (100 μl/well) and incubated for 20 minutes at room temperature on a plate shaker until color development is sufficient for photometric detection. • (11) The absorbance of the samples are measured at 410 nm (in “dual wavelength” mode with a filter reading at 490 nm, as a reference wavelength) on a Dynatech ELISA plate reader.
In the case of `Cn1cccc1C=C1C(=O)Nc2ccccc21` [SU5464, 3-[(1-Methylpyrrol-2-yl)methylene]-2-indolinone], the IC50 was 95 µM. As to `Cc1cnc(C=C2C(=O)Nc3ccccc32)s1` [SU5469, 3-[(5-Methylthiazol-2-yl)methylene]-2-indolinone], the IC50 came to 28 µM. On the same count and under the same terms, the value for `O=C1Nc2ccccc2C1=Cc1c(Br)cnn1Cc1ccc(Cl)cc1` [SU5475, 3-[(4-Bromo-1-(4-chlorobenzyl)pyrazol-5-yl)methylene]-2-indolinone] was 48 µM. `CCOC(=O)CCc1c(C=C2C(=O)Nc3ccccc32)[nH]c(C(=O)OCC)c1CC(=O)OCC` [SU5465, 3-[(5-Ethoxycarbonyl-3-ethoxycarbonylethyl-4-ethoxylcarbonylmethylpyrrol-2-yl)methylene]-2-indolinone]: the IC50 amounted to 50 µM.

Another test concerns the target T2, FLK-1 receptor (Mus musculus, UniProt P35918).
T2 construct: expressed in transfected cells; host or cells: NIH3T3 C7 #3
Kind of test: FLK-1 ELISA in FLK-1/NIH3T3 cells. The format is cell-based.
Conditions: not given
A general note: An ELISA detects its analyte on a solid surface through an enzyme-linked reagent.
Regarding “3-[(2-Sulphonylfuran-5-yl)methylene]-2-indolinone sodium salt [SU5428]”, the IC50 turned out to be 8.6 µM.

The test is the same for the next values; noted with them: ELISA, FLK-1/NIH3T3 cells, VEGF stimulated.
On to `Cc1c(CCC(=O)O)c[nH]c1C=C1C(=O)Nc2ccccc21` [SU5402, 3-[(3-(2-carboxyethyl)-4-methylpyrrol-5-yl)methylene]-2-indolinone], for which the IC50 was determined as 0.4 µM. In the case of `Cn1cccc1C=C1C(=O)Nc2ccccc21` [SU5464, 3-[(1-Methylpyrrol-2-yl)methylene]-2-indolinone], the IC50 is 20.3 µM.

Compound `CCc1c(C=C2C(=O)Nc3ccccc32)[nH]c(C)c1C` [SU5453, 3-[(4,5-Dimethyl-3-ethylpyrrol-2-yl)methylene]-2-indolinone] gave an IC50 of 0.14 µM. On the same count and under the same terms, the value for `O=C1Nc2ccccc2C1=Cc1ccc(F)cc1` [SU5205, 3-(4-Fluorobenzylidenyl)-2-indolinone] was 9.6 µM; that for `CCOc1ccccc1C=C1C(=O)Nc2ccccc21` [SU5204, 3-(2-Ethoxybenzylidenyl]-2-indolinone] was 4 µM. The same measure, in the same setting: in the case of `Cc1c(C=O)[nH]c(C=C2C(=O)Nc3ccccc32)c1C` [SU5405, 3-[(3,4-Dimethyl-2-formylpyrrole-5-yl)methylene)-2-indolinone] it was 23.8 µM; in that of `COc1cccc(C=C2C(=O)Nc3ccccc32)c1OC` [SU4794, 3-(2,3-dimethoxybenzylidenyl)-2-indolinone], 11.8 µM.

Regarding `Cc1[nH]c(C=C2C(=O)Nc3ccccc32)c(Br)c1Br` [SU5403, 3-[(3,4-Dibromo-5-methylpyrrol-2-yl)methylene]-2-indolinone], the IC50 came out at 1.8 µM.

Compound `CCCCN(CCCC)c1ccc(C=C2C(=O)Nc3ccccc32)cc1` [SU4979, 3-(4-Di-n-butylaminobenzylidenyl)-2-indolinone] had an IC50 of 20.9 µM. For the compound `Cc1cnc(C=C2C(=O)Nc3ccccc32)[nH]1` [SU5468, 3-[(5-Methylimidazol-2-yl)methylene]-2-indolinone], the IC50 came to 2.7 µM. Same read-out and setting: in the case of `Cc1ccc(C=C2C(=O)Nc3ccccc32)s1` [SU5424, 3-[(2-Methylthien-5-yl)methylene]-2-indolinone] it was 2.4 µM; in that of `Cc1c[nH]c(C=C2C(=O)Nc3ccccc32)c1C` [SU5406, 3-[(3,4-Dimethylpyrrol-2-yl)methylene]-2-indolinone], 0.17 µM. On the same count and under the same terms, the value for `COc1ccc(OC)c(C=C2C(=O)Nc3ccccc32)c1` [SU4793, 3-(2,5-Dimethoxybenzylidenyl)-2-indolinone] was 4.2 µM; that for `Cc1cc(C=C2C(=O)Nc3ccccc32)[nH]n1` [SU5472, 3-[(3-Methylpyrazol-5-yl)methylene]-2-indolinone] was 8.7 µM. Still for that read-out and setting: the value for `Cc1cc[nH]c1C=C1C(=O)Nc2ccccc21` [SU5404, 3-[(3-Methylpyrrol-2-yl)methylene]-2-indolinone] was 0.24 µM; that for `O=C1Nc2ccccc2C1=Cc1cccs1` [SU5208, 3-[(Thien-2-yl)methylene]-2-indolinone] was 4.7 µM. The compound `CCc1c(C=C2C(=O)Nc3ccccc32)[nH]c(C(=O)O)c1C` [SU5455, 3-[(5-Carboxy-3-ethyl-4-methylpyrrol-2-yl)methylene]-2-indolinone] yielded an IC50 of 36.2 µM.

The compound `CCc1c(C)[nH]c(C=C2C(=O)Nc3ccccc32)c1C` [SU5477, 3-[(4-Ethyl-3,5-dimethylpyrrol-2-yl)methylene]-2-indolinone] came in with an IC50 of 0.15 µM. The same measure, in the same setting: the value for `Cc1cc(C=C2C(=O)Nc3ccccc32)oc1C` [SU5421, 3-[(2,3-Dimethylfuran-5-yl)methylene]-2-indolinone] was 4.6 µM; that for `Cc1ccc(C=C2C(=O)Nc3ccccc32)o1` [SU5430, 3-[(2-Methylfuran-5-yl)methylene]-2-indolinone] was 73.4 µM; that for `CC(=O)Nc1ccc(C=C2C(=O)Nc3ccccc32)cc1` [SU4944, 3-(4-Acetylaminobenzylidenyl)-2-indolinone] was 8.5 µM. The same measure, in the same setting: the value for `CCOC(=O)c1c(C)[nH]c(C=C2C(=O)Nc3ccccc32)c1C` [SU5408, 3-[(2,4-Dimethyl-3-ethoxycarbonylpyrrol-5-yl)methylene]-2-indolinone] was 0.07 µM. Same read-out and setting: in the case of `O=C1Nc2ccccc2C1=Cc1n[nH]cc1Cl` [SU5474, 3-[(4-Chloropyrazol-3-yl)methylene]-2-indolinone] it was 7.4 µM; in that of `CC(=O)Nc1ccc(C=C2C(=O)Nc3ccccc32)cc1` [SU4799, 3-(4-acetamidobenzylidenyl)-2-indolinone], 9 µM; in that of `O=C1Nc2ccccc2C1=Cc1sccc1Br` [SU5418, 3-[(3-Bromothiene-2-yl)methylene]-2-indolinone], 15.4 µM.

`CCc1ccc(C=C2C(=O)Nc3ccccc32)o1` [SU5431]: the IC50 is 41.2 µM.

Regarding `O=C1Nc2ccccc2C1=Cc1ccc([N+](=O)[O-])o1` [SU5432, 3-[(2-Nitrofuran-5-yl)methylene]-2-indolinone], the IC50 was found to be 22.8 µM. As to `O=C1Nc2ccc(Cl)cc2C1=Cc1ccc(N2CCOCC2)cc1` [SU4983, 5-Chloro-3-(4-(morpholine-4-yl)benzylidenyl)-2-indolinone], the IC50 was 4.1 µM.

In turn, `CN(C)c1ccc(C=C2C(=O)N(C)c3ccccc32)cc1` [SU4952, 3-(4-Dimethylaminobenzylidenyl)-1-methyl-2-indolinone] registered an IC50 of 22.6 µM. The same measure, in the same setting: the value for `Cc1csc(C=C2C(=O)Nc3ccccc32)c1` [SU5401, 3-[(4-Methylthien-2-yl)methylene]-2-indolinone] was 2.9 µM; that for `CSc1ccc(C=C2C(=O)Nc3ccccc32)s1` [SU5419, 3-[(2-Methylmercaptothien-5-yl)methylene]-2-indolinone] was 2.3 µM; that for `O=C1Nc2ccccc2C1=Cc1ccc(O)cc1Cl` [SU4932, 3-(2-chloro-4-hydroxybenzylidenyl)-2-indolinone] was 2.2 µM. Regarding `Cc1ccsc1C=C1C(=O)Nc2ccccc21` [SU5427, 3-[(3-Methylthien-2-yl)methylene]-2-indolinone], the IC50 was 4.5 µM.

In turn, `O=C1Nc2ccccc2C1=Cc1ccco1` [SU4798, 3-[(furan-2-yl)methylene]-2-indolinone] gave an IC50 of 28.8 µM. Still for that read-out and setting: the value for `O=C1Nc2ccccc2C1=Cc1ccc(Br)s1` [SU5425, 3-[(2-Bromothiene-5-yl)methylene]-2-indolinone] was 51.4 µM; that for `CN(C)c1ccc(C=C2C(=O)Nc3ccccc32)cc1` [SU4312, 3-(4-Dimethylaminobenzylidenyl)-2-indolinone] was 0.8 µM.
